In PMC8502122, “A comprehensive method for determining cellular uptake of purine nucleoside phosphorylase and adenylosuccinate synthetase inhibitors by H. pylori” (Applied Microbiology and Biotechnology, 2021):
Read-outs that look alike come from different tables or passages of the source.

Tests used:
[1] = pKa values and ionic form at pH 7; format: physicochemical
Excerpt: Table 3 Partition coefficients of the neutral and ionized forms, and pKa values of the tested compounds, and of metronidazole used as a control in the cellular uptake studies. Partition coefficients of the ionic forms observed at pH 7 are marked bold | column: Ionic form at pH 7

[2] = test system: H. pylori 26695 strain cells; test: Cellular uptake (accumulation test), LC–MS detection; format: cell-based
Procedure: Formycin A, formycin B, and metronidazole were quantified through the ultra-performance liquid chromatography–tandem mass spectrometry. Samples were analyzed on Waters Xevo TQ-S with a standard ESI ion source coupled to Waters Acquity I-class UPLC.
Calibration samples were prepared by spiking blank growth medium F12 by the tested inhibitor, formycin A, formycin B, or metronidazole solutions. Internal standards (IS) were used to improve the accuracy of the method. To each pipetted sample from a particular experiment, the same amount of IS was added. As a detector response, we considered the ratio of the analyte peak area (variable) to the internal standard peak area (constant). This allows compensation for signal changes due to a possible instability of the ion source. If the ionization efficiency changes, both compounds are affected, but the surface peak ratio is maintained. […] Samples and calibrators were precipitated using IS solution and injected on the instrument.
Calibration curves were acquired by plotting the concentration of the standards against the ratio of the analyte peak area to the IS peak area. The calibration curve for FA in low concentration (35 μM) consisted of 7 samples in the range from 0.23 to 37.5 μM (R^2 = 0.997); for FA in high concentration (350 μM), the curve consisted of 6 samples in the range from 3.7 to 374.7 μM (R^2 = 0.995); for FB in low concentration (35 μM), the curve consisted of 7 samples in the range from 0.291 to 46.5 μM (R^2 = 0.999); for FB in high concentration (350 μM), the curve consisted of 7 samples in the range from 2.91 to 465.0 μM (R^2 = 0.999); and for MTZ (0.5 μM), the calibration curve was 8 samples in the range from 0.584 to 584.2 nM (R^2 = 0.995).
Chromatography was run on Waters Acquity BEH C18, 1.7 μm, 2.1 mm × 50 mm analytical column thermostated at 70 °C. The separations were done using 2.5 min gradient method. Phase A was 0.1% formic acid in MilliQ water; phase B was 0.1% formic acid in acetonitrile. For formycins the gradient started at 5% B and increased linearly to 50% B in 1.6 min; at 1.8 min it returned to the starting condition for column equilibration. For metronidazole the gradient started at 5% B and increased linearly to 50% B in 1.3 min; at 2.0 min it returned to the starting condition for column equilibration. The flow rate was 600 μL/min in both methods. The retention time of FA was 0.42 min, FB was 0.45 min (see Fig. 4a, b), and MTZ 0.88 min.

[3] = ref Giziewicz and Shugar [1977], Wierzchowski and Shugar [1982], Bzowska et al. [1992] (formycins), Gottlieb and Shaw [2013] (hadacidin), cited from earlier work; for pKa (first value): Hellgren et al. [1995] (metronidazole)
[4] = test system: H. pylori ATCC 26695 strain; test: MIC by broth microdilution and FICI of 1:1 combinations, strain 26695; format: cell-based; details: Helicobacter pylori, ATCC26695, 72 h, combinations 1:1 w/w given as inhibitor a/inhibitor b
Procedure: (§1) Minimal inhibitory concentration of inhibitors was determined by an in vitro broth microdilution assay (Knezevic et al. [2018]). Briefly, double-strength Brain heart infusion broth (BHI) was supplemented with yeast extract (2.5%), horse serum (5%), and IsoVitaleX (1%). In each well, twofold serial dilutions of inhibitors (from 1000 µg/mL to 7.8 μg/mL in a final volume) and an equal volume of inoculated double-strength BHI were added (approx. 1 × 10^6 CFU/mL in final volume). Amoxicillin was used as a positive control, and distilled water as a negative control. The microtiter plates were incubated at 37 °C under microaerobic conditions in moist atmosphere for 3 days. […] During the incubation, in wells with viable H. pylori urease produced by the bacteria converted urea into ammonia and carbon dioxide, changing the pH and color of a phenol red indicator in the medium (from orange to purple). The plates were examined visually for color change and OD560 was measured after 4 h in order to determine presence/absence of growth. The MIC is defined as the lowest concentration of a compound that inhibits visible growth, compared with the growth in the controls (in this case defined as presence/absence of color change). All experiments were performed in duplicate and in 3–6 independent tests.
(§2) In order to determine possible additive or even synergistic effect of inhibitors, a method with calculation of the fractional inhibitory concentration index (FICI) was used (Pillai et al, [2005]). A combination of two inhibitors was applied (w/w 1:1) in the final concentration 1 mg/mL and subsequently diluted. The FICI index was calculated as FICI = (MICA/MICa) + (MICB/MICb), where MICA = concentration of inhibitor a in combination with inhibitor b; MICa = MIC of inhibitor a, applied as a single agent; MICB = concentration of inhibitor b in combination with inhibitor a; and MICb = MIC of inhibitor b applied as a single agent. The results were interpreted as a synergistic effect if the FICI was ≤ 0.5; as an additive effect if 0.5 < FICI ≤ 1; an indifferent effect if 1 < FICI ≤ 4; and as an antagonistic effect if the FICI was > 4 (Pillai et al. [2005]).

[5] = test system: H. pylori 26695 strain cells; test: Cellular uptake (accumulation test), detection by inhibition of the target enzyme (AdSS or PNP); format: cell-based; details: 8 h
Procedure: Overnight cultures of H. pylori wild-type 26695 strain were grown by shaking (120 rpm) at 37 °C under microaerophilic conditions (5% O2, 10% CO2, 85% N2) in BHI medium (37 g/L) supplemented with 10% Fetal Bovine Serum and 1% Helicobacter pylori Selective Supplement. Cells were collected by centrifugation (5 min at 8000 × g at room temperature). The supernatant was decanted and the cell pellets were suspended in F12 medium (with L-glutamine and sodium bicarbonate) and centrifuged again. The supernatant was decanted again and cell pellets were resuspended in such a volume of F12 medium to obtain an OD600 of 4.0.
(§3) The accumulation test was carried out in 24-deep-well 2 mL flat-bottomed plates, all in a final volume of 1 mL. Three types of samples were used, generated by mixing the following components in a 1:1 ratio: (1) concentrated and resuspended cells in F12 medium, (2) a solution of the appropriate concentration of a test compound in F12 medium, (3) F12 medium.
The final concentrations of the tested compounds were 350 µM and 35 µM for formycin A and formycin B, and 35 μM for hadacidin. One set of three replicate samples was incubated at 37 °C, and the other set was incubated at 4 °C. […]
where Km and Vmax are the Michaelis constant and maximal velocity, respectively, and Ki is the inhibition constant of the tested inhibitor, in our case hadacidin. […] These values, together with velocity measured for any tested supernatant, Cinhibitor_start , and velocity measured when only F12 medium is present, v, are sufficient to determine inhibitor concentration, Ctested , present in a tested supernatant, using Eq. (4), which is obtained by the rearrangement of Eq. (2) and Eq. (3):4 Ctested=Cinhibitor_start1/vtested-1/v/1/vinhibitor_start-1/v
The formycin B uptake was studied in the same way, but instead of AdSS, PNP was used, since it is the target enzyme for this inhibitor. […] Specific activity is expressed as units per mg of protein (U/mg).

[6] = test system: H. pylori 26695 strain cells; test: Cellular uptake (accumulation test), UV absorption detection; details: 8 h
Procedure: Cellular uptake of PNP inhibitors, formycin A (FA) and formycin B (FB), and the control compound, metronidazole (MTZ), was determined using the approach described by Zhou et al. ([2015]) for E. coli and Pseudomonas aeruginosa, adapted to conditions suitable for H. pylori cell growth. This method measures the change of extracellular drug concentration using LC–MS detection.
Overnight cultures of H. pylori wild-type 26695 strain were grown by shaking (120 rpm) at 37 °C under microaerophilic conditions (5% O2, 10% CO2, 85% N2) in BHI medium (37 g/L) supplemented with 10% Fetal Bovine Serum and 1% Helicobacter pylori Selective Supplement. Cells were collected by centrifugation (5 min at 8000 × g at room temperature). The supernatant was decanted and the cell pellets were suspended in F12 medium (with L-glutamine and sodium bicarbonate) and centrifuged again. The supernatant was decanted again and cell pellets were resuspended in such a volume of F12 medium to obtain an OD600 of 4.0. F12 medium was selected for experiments because it is a minimal medium of defined composition and is suitable for measurements on MS.
as §3
The final concentrations of the tested compounds were 350 µM and 35 µM for formycin A and formycin B, and 35 μM for hadacidin. One set of three replicate samples was incubated at 37 °C, and the other set was incubated at 4 °C. Samples were taken at the start of the accumulation test, to check the concentration of the inhibitor at the start (named “Inhibitor_start,” “H. pylori + inhibitor_start”), then after 4 and 8 h of incubation at both temperatures. The obtained samples were centrifuged at 8000 × g for 5 min at 4 °C. The supernatant was collected for the LC–MS analysis (used for MTZ, FA, and FB uptake), UV absorption measurements (used for FA and FB uptake), and AdSS and PNP inhibition analysis (used for Hada and FB uptake).
For cellular uptake of formycin A and formycin B, UV absorption was additionally used as a detection method. […] Nevertheless, there is some overlap between these spectra, and because of that, selective observation of formycins absorption is not possible. Moreover, during the cellular uptake experiment, H. pylori cells may take some UV absorbing nutrients from the medium, as well as release some metabolic products that also absorb in the UV region. Therefore, in the cellular uptake experiment, correction for absorption caused by these processes was introduced by including samples containing just H. pylori cells in F12 medium, incubated for 4 and 8 h at both temperatures, and subtracting absorption spectra of such supernatants.
Samples in this case were the same as those evaluated by the LC–MS detection and by analysis of the inhibition of the PNP activity. The UV spectra of the supernatants, from experiments with 350 μM and at 35 μM inhibitor concentration, diluted with water 10 times and 2 times, respectively (with the absorbance of F12 medium, 10 times or 2 times diluted with water, as a reference), were measured. The absorbance at the most suitable wavelengths was used to calculate the formycin concentration. […]

H. pylori SS1 strain = test: MIC by broth microdilution and FICI of 1:1 combinations, strain SS1; format: cell-based; details: Helicobacter pylori, SS1STRAIN, 72 h, combinations 1:1 w/w given as inhibitor a/inhibitor b
Procedure: as §1, §2

[7] = molecular target: T1, purine nucleoside phosphorylase (PNP) from H. pylori 26695 strain (Helicobacter pylori, UniProt P56463); test: biochemical
T1 sequence (P56463 whole entry): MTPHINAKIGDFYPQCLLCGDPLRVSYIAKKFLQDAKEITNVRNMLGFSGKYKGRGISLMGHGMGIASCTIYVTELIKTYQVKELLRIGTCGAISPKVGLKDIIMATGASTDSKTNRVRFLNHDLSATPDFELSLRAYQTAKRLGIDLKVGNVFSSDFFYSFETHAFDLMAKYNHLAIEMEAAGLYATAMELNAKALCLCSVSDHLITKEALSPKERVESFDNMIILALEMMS
Procedure: (§4) Kinetic experiments with PNP, and also with AdSS, described in the section “AdSS and PNP inhibition detection of cellular uptake”, were performed on a double-beam UV/VIS spectrophotometer Cary 100, with thermostated Peltier cell holders (Varian: Agilent Technologies, Mulgrave, Vic., Australia). The inhibition constant was determined as the adjustable parameter in the global fitting of the competitive inhibition model to all data obtained, using the GraphPad Prism program (GraphPad Software, San Diego, CA, USA).

[8] = molecular target: T1, purine nucleoside phosphorylase (PNP) from H. pylori 26695 strain; details: m^7Guo as variable substrate, global fit, 25 °C, pH 7.0, 50 mM phosphate
Procedure: as §4

[9] = molecular target: T1, purine nucleoside phosphorylase (PNP) from H. pylori 26695 strain; set-up: made in house; method as in Narczyk et al. [2018]; details: H. pylori 26695 strain PNP; ref Narczyk et al. [2018]; cited from earlier work
E. coli PNP = test system: E. coli PNP; set-up: method as in Bzowska et al. [1992]; details: ref Bzowska et al. [1992]; cited from earlier work
P. falciparum PNP = test system: P. falciparum PNP; set-up: method as in Dziekan et al. [2019]; details: solution studies; ref Dziekan et al. [2019]; cited from earlier work
[10] = molecular target: adenylosuccinate synthetase (AdSS) from H. pylori 26695 strain; set-up: method as in Bubić et al. [2018]; details: H. pylori 26695 strain AdSS; ref Bubić et al. [2018]; cited from earlier work
[11] = H. pylori ATCC 26695, geometrical mean of repetitions
[12] = starting concentration 350 µM, UV absorption at 294 nm
[13] = starting concentration 35 µM, LC–MS, 8 h incubation, Eq. (1)
[14] = starting concentration 350 µM, LC–MS, 8 h incubation, Eq. (1)
[15] = H. pylori SS1, geometrical mean of repetitions

SMILES | Ionic form at pH 7 [1] | pKa (first value) [3] | pKa [3] | MIC [4, 11] | MIC ([4]; H. pylori ATCC 26695) | Intracellular accumulation [6, 12] | Intracellular accumulation [2, 13] | Intracellular accumulation [2, 14] | MIC (H. pylori SS1 strain; [15]) | MIC (H. pylori SS1 strain; H. pylori SS1) | further results
Cc1ncc([N+](=O)[O-])n1CCO [Metronidazole] | Neutral |  |  |  |  |  |  |  |  |  | Intracellular accumulation ([2]; Helicobacter pylori, 8 h, 0.5 µM): 0.37 ± 0.01 µM
O=c1[nH]cnc2c([C@@H]3O[C@H](CO)[C@@H](O)[C@H]3O)n[nH]c12 [Formycin B] | Neutral | 0.9 | 8.6 | > 1000 µg/mL | > 3.7 mM | 1.0 ± 7.4 µM | 2.5 ± 0.5 µM | 7.1 ± 2.5 µM | ≥ 397 µg/mL | ≥ 1.5 mM | Intracellular accumulation ([5]; starting concentration 350 µM, PNP inhibition detection): 20.2 ± 34.0 µM; Intracellular accumulation ([6]; starting concentration 350 µM, UV absorption at 279 nm): 3.0 ± 9.2 µM; Intracellular accumulation ([2]; starting concentration 350 µM, LC–MS, 8 h incubation, Eq. (1), listed as formycin B): up to 7.1 ± 2.5 µM; Ki [7]: 0.96 ± 0.08 µM
C[n+]1cn([C@@H]2O[C@H](CO)[C@@H](O)[C@H]2O)c2nc(N)[nH]c(=O)c21 [m^7Guo, 7-Methylguanosine] |  |  |  |  |  |  |  |  |  |  | Km [8]: 0.0463 ± 0.0044 mM; Vmax [8]: 12.5 ± 0.5 µmol/min/mg
Nc1ncnc2c([C@@H]3O[C@H](CO)[C@@H](O)[C@H]3O)n[nH]c12 [Formycin A] | Neutral | 4.6 | 9.7 | ≥ 870 µg/mL | ≥ 3.1 mM | 35.2 ± 7.1 µM | 15.9 ± 0.5 µM | 29.5 ± 5.3 µM | > 1000 µg/mL | > 3.5 mM | Ki [9]: 14 ± 1.7 µM; Ki (E. coli PNP): 5.3 ± 0.4 µM; Intracellular accumulation ([6]; starting concentration 35 µM, UV absorption at 305 nm): 6.7 ± 0.6 µM; Intracellular accumulation ([6]; starting concentration 350 µM, UV absorption at 305 nm, Eq. (1), no correction for metabolites): 22.2 ± 7.6 µM; Intracellular accumulation ([2]; starting concentration 350 µM, LC–MS, 8 h incubation, Eq. (1), listed as formycin A): up to 29.5 ± 5.3 µM
C=C[C@H]1C[N@@]2CC[C@H]1C[C@H]2[C@H](O)c1ccnc2ccc(OC)cc12 [quinine] |  |  |  |  |  |  |  |  |  |  | Binding affinity to P. falciparum PNP (P. falciparum PNP): low nanomolar affinity
O=CN(O)CC(=O)O [Hadacidin] | Anion | 3.5 | 9.4 | > 1000 µg/mL | > 8.4 mM |  |  |  | > 1000 µg/mL | > 8.4 mM | Ki [10]: 0.19 ± 0.02 µM; Intracellular accumulation ([5]; starting concentration 35 µM, AdSS inhibition detection): 4.9 ± 4.1 µM; Intracellular accumulation ([5]; starting concentration 35 µM, AdSS inhibition detection, listed as hadacidin): does not enter H. pylori cells
